Measured values: PubChem BioAssay AID2060882 (Molecular Pharmacology Branch, DTP, NCI, 2025)
pIC50: −log10 of the molar value. Blank lines part the entries; values can stand above or below the molecule they belong to.

System: 898857-211-R-J1-PDC complex spheroids, growth % test/control
Assay: Anticancer human tumor 898857-211-R-J1-PDC patient-derived melanoma cell line growth inhibition [RAS]
Conditions: for pIC50: curve of first compound; for viability, T/C: stronger effect = lower value
From the text: RAS pathway inhibitors in Combinations in Complex Spheroids
A high-throughput screen of multi-cell type tumor spheroids was designed to identify active combinations of RAS pathway inhibitors and targeted small molecules. Complex spheroids include a stromal component modeled by human endothelial cells (HUVEC) and fibroblasts modeled by human mesenchymal stem cells (MSCs). The concentration ranges selected for each drug and investigational agent were based upon clinically achievable concentrations if the clinical Cmax of the agent was known.
Compounds. The drugs and investigational agents: abemaciclib (NSC768073), cobimetinib (NSC768068), divarasib (GDC6063, NSC841802), docetaxel (NSC628503), GDC-1971 (RLY-1971, NSC841576), gemcitabine (NSC613327), inavolisib (NSC800729), ipatasertib (NSC767898), KB-0742 (NSC834161), MRTX-1133 (NSC836407), osimertinib (NSC779217), RMC-4630 (NSC839698), RMC-6236 (NSC851965), RMC-6291 (NSC852671), Ro-3306 (NSC812927), sapanisertib (NSC764658), SN-38 (NSC673596), staurosporine (NSC755774), SY5609 (NSC837396), and tovorafenib (DAY101, NSC766906), were obtained from the National Cancer Institute (NCI) Developmental Therapeutics Program Chemical Repository. The FDA-approved anticancer drug set is available from the NCI Developmental Therapeutics Program. […] The stock solutions were prepared in dimethyl sulfoxide (DMSO, Sigma-Aldrich, St. Louis, MO, cat. D2650) at 800-fold the tested concentration and stored at -70 degrees C prior to their use. All drugs and investigational agents were tested over a range starting from a high concentration at or near the clinical Cmax and decreasing in half-log increments. If the clinical Cmax for an agent had not been determined, the highest concentration tested was 10 microM.
Cell Culture. All cells were maintained in an incubator at 37 degrees C and 5% CO2 with 95% humidity. The PDC lines were cultured according to standard operating procedures established by the NCI PDMR. All PDCs were thawed and cultured in Matrigel-coated flasks prepared with a working solution of 1X Ham's F-12 nutrient mix, without supplementation (Invitrogen, Waltham, MA, cat. 11765054), 100 U/mL penicillin-streptomycin (Invitrogen, cat. 15140122), and 2.5% Matrigel (Corning Inc., Corning, NY, cat. 354248) for the first three passages. The 362531-283-R-J2-PDC and 782815-120-R-J1-PDC lines were cultured in 6C/Colon 1B media, which includes advanced DMEM/F-12 (Thermo Fisher Scientific, cat. 12634028), 10 mM HEPES (Thermo Fisher Scientific, cat. 15630080), 1X GlutaMAX supplement (Thermo Fisher Scientific, cat. 35050061), 0.1 mg/mL primocin (InvivoGen, San Diego, CA, cat. ant-pm-2), 10% defined fetal bovine serum, heat inactivated (HyClone Laboratories Inc., Logan, UT, cat. SH30070.03HI), 50% L-WRN conditioned media (ATCC, cat. CRL-3276), 1.25 mM N-Acetyl-L-cysteine (Sigma-Aldrich, cat. A9165), 10 mM nicotinamide (Sigma-Aldrich, cat. N0636), 1X B-27 supplement (Thermo Fisher Scientific, cat. 17504044), 1X N-2 supplement (Thermo Fisher Scientific, cat. 17502048), 50 ng/mL human EGF (Thermo Fisher Scientific, cat. PHG0311), and 10 microM Y-27632 dihydrochloride (Tocris Bioscience, cat. 1254). The K12877-001-R-J1-PDC line was cultured in 6I media, which includes all 6C/Colon 1B media plus 10 ng/mL human FGF-10 (PeproTech, cat. 100-26), 1 ng/mL human FGF-2 (PeproTech, cat. 100-18B), 1 µM prostaglandin E2 (Tocris Bioscience, cat. 2296), […] hydrocortisone (Sigma-Aldrich, cat. H4001), and […] bovine insulin (Sigma-Aldrich, cat. I6634). The K86415-001-R-J1-PDC line was cultured in 6D media, which includes all 6C/Colon 1B media components minus the L-WRN conditioned media. The 485176-168-R4-J1-PDC was cultured in PANC media, which includes all 6C/Colon 1B media plus 100 ng/mL human FGF-10 (PeproTech, cat. 100-26), 500 nM SB-431542 (Selleckchem, cat. S1067), and 10 nM gastrin (Tocris Bioscience, cat. 3006). […]

[1] = second compound 0.000949 µM, first compound 0.0316 µM
[2] = second compound 0.000949 µM, first compound 0.1 µM
[3] = second compound 0.000949 µM, first compound 0.316 µM
[4] = second compound 0.000949 µM, first compound 1 µM
[5] = second compound 0.003 µM, first compound 0.0316 µM
[6] = second compound 0.003 µM, first compound 0.1 µM
[7] = second compound 0.003 µM, first compound 0.316 µM
[8] = second compound 0.003 µM, first compound 1 µM
[9] = second compound 0.00949 µM, first compound 0.0316 µM
[10] = second compound 0.00949 µM, first compound 0.1 µM
[11] = second compound 0.00949 µM, first compound 0.316 µM
[12] = second compound 0.00949 µM, first compound 1 µM
[13] = second compound 0.03 µM, first compound 0.0316 µM
[14] = second compound 0.03 µM, first compound 0.1 µM
[15] = second compound 0.03 µM, first compound 0.316 µM
[16] = second compound 0.03 µM, first compound 1 µM
[17] = second compound 0.0949 µM, first compound 0.0316 µM
[18] = second compound 0.0949 µM, first compound 0.1 µM
[19] = second compound 0.0949 µM, first compound 0.316 µM
[20] = second compound 0.0949 µM, first compound 1 µM
[21] = second compound 0.3 µM, first compound 0.0316 µM
[22] = second compound 0.3 µM, first compound 0.1 µM
[23] = second compound 0.3 µM, first compound 0.316 µM
[24] = second compound 0.3 µM, first compound 1 µM
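Further: spheroids exposed to compound for seven days before readout.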
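Wherever viability, T/C is given: 100% = DMSO vehicle control wells.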

- pIC50 (second compound 0.000949 µM): < 6.00
- pIC50 (second compound 0.003 µM): < 6.00
- pIC50 (second compound 0.00949 µM): < 6.00
- pIC50 (second compound 0.03 µM): < 6.00
- pIC50 (second compound 0.0949 µM): < 6.00
- pIC50 (second compound 0.3 µM): < 6.00
SMILES: C=CC(=O)N1CCN(c2nc(OCC3CCCN3C)nc3c(F)c(-c4nc(N)cc(C)c4C(F)(F)F)c(Cl)cc23)C(C)C1 (centres undefined) + CCn1c(-c2cc(N3CCN(C)CC3)cnc2C(C)OC)c2c3cc(ccc31)-c1csc(n1)CC(NC(=O)C1CC1C)C(=O)N1CCCC(N1)C(=O)OCC(C)(C)C2
- viability, T/C (second compound 0.000949 µM, first compound 0.00316 µM): 124%
- viability, T/C (second compound 0.000949 µM, first compound 0.01 µM): 106%
- viability, T/C [1]: 105%
- viability, T/C [2]: 111%
- viability, T/C [3]: 127%
- viability, T/C [4]: 126%
- viability, T/C (second compound 0.003 µM, first compound 0.00316 µM): 99.6%
- viability, T/C (second compound 0.003 µM, first compound 0.01 µM): 104%
- viability, T/C [5]: 116%
- viability, T/C [6]: 101%
- viability, T/C [7]: 114%
- viability, T/C [8]: 108%
- viability, T/C (second compound 0.00949 µM, first compound 0.00316 µM): 101%
- viability, T/C (second compound 0.00949 µM, first compound 0.01 µM): 112%
- viability, T/C [9]: 98.9%
- viability, T/C [10]: 101%
- viability, T/C [11]: 118%
- viability, T/C [12]: 104%
- viability, T/C (second compound 0.03 µM, first compound 0.00316 µM): 106%
- viability, T/C (second compound 0.03 µM, first compound 0.01 µM): 112%
- viability, T/C [13]: 103%
- viability, T/C [14]: 121%
- viability, T/C [15]: 110%
- viability, T/C [16]: 110%
- viability, T/C (second compound 0.0949 µM, first compound 0.00316 µM): 111%
- viability, T/C (second compound 0.0949 µM, first compound 0.01 µM): 117%
- viability, T/C [17]: 117%
- viability, T/C [18]: 116%
- viability, T/C [19]: 120%
- viability, T/C [20]: 110%
- viability, T/C (second compound 0.3 µM, first compound 0.00316 µM): 123%
- viability, T/C (second compound 0.3 µM, first compound 0.01 µM): 111%
- viability, T/C [21]: 100%
- viability, T/C [22]: 116%
- viability, T/C [23]: 111%
- viability, T/C [24]: 99.7%

- pIC50 (second compound 0.000949 µM): 5.95
- pIC50 (second compound 0.003 µM): 5.96
- pIC50 (second compound 0.00949 µM): 6.01
- pIC50 (second compound 0.03 µM): 5.98
- pIC50 (second compound 0.0949 µM): 6.13
- pIC50 (second compound 0.3 µM): 6.38
SMILES: CCC(CC)c1cc(NC2CCC(N)C2)n2nccc2n1 (centres undefined) + CCn1c(-c2cccnc2C(C)OC)c2c3cc(ccc31)N1CCOC(CC(NC(=O)C(C(C)C)N(C)C(=O)C3(F)CCN(C(=O)C#CC(C)(C)N(C)C)CC3)C(=O)N3CCCC(N3)C(=O)OCC(C)(C)C2)C1
- viability, T/C [1]: 124%
- viability, T/C [2]: 105%
- viability, T/C [3]: 101%
- viability, T/C [4]: 57.4%
- viability, T/C (second compound 0.000949 µM, first compound 3.16 µM): 1.07%
- viability, T/C (second compound 0.000949 µM, first compound 10 µM): 0.23%
- viability, T/C [5]: 109%
- viability, T/C [6]: 106%
- viability, T/C [7]: 103%
- viability, T/C [8]: 54%
- viability, T/C (second compound 0.003 µM, first compound 3.16 µM): 0.85%
- viability, T/C (second compound 0.003 µM, first compound 10 µM): 0.65%
- viability, T/C [9]: 103%
- viability, T/C [10]: 100%
- viability, T/C [11]: 101%
- viability, T/C [12]: 48.5%
- viability, T/C (second compound 0.00949 µM, first compound 3.16 µM): 1.54%
- viability, T/C (second compound 0.00949 µM, first compound 10 µM): 0.27%
- viability, T/C [13]: 108%
- viability, T/C [14]: 109%
- viability, T/C [15]: 102%
- viability, T/C [16]: 51.9%
- viability, T/C (second compound 0.03 µM, first compound 3.16 µM): 0.7%
- viability, T/C (second compound 0.03 µM, first compound 10 µM): 0.63%
- viability, T/C [17]: 94.9%
- viability, T/C [18]: 105%
- viability, T/C [19]: 80.4%
- viability, T/C [20]: 40.9%
- viability, T/C (second compound 0.0949 µM, first compound 3.16 µM): 0.82%
- viability, T/C (second compound 0.0949 µM, first compound 10 µM): 0.45%
- viability, T/C [21]: 83.5%
- viability, T/C [22]: 72.2%
- viability, T/C [23]: 59.9%
- viability, T/C [24]: 22.7%
- viability, T/C (second compound 0.3 µM, first compound 3.16 µM): 1.27%
- viability, T/C (second compound 0.3 µM, first compound 10 µM): 0.27%
